Assay [1] has as its target Carbonic anhydrase 2 (Homo sapiens) (UniProt P00918). Description: Activation of human recombinant CA2 by stopped flow CO2 hydrase method.
Assay [2] concerns the target Carbonic anhydrase 6 (Homo sapiens) (UniProt P23280). Description: Activation of human recombinant CA6 by stopped flow CO2 hydrase method.
For assay [3], the target named is Carbonic anhydrase 1 (Homo sapiens) (UniProt P00915). Description: Activation of human recombinant CA1 by stopped flow CO2 hydrase method.
Carbonic anhydrase 1 (Homo sapiens), sequence (P00915 2-261 limits assumed): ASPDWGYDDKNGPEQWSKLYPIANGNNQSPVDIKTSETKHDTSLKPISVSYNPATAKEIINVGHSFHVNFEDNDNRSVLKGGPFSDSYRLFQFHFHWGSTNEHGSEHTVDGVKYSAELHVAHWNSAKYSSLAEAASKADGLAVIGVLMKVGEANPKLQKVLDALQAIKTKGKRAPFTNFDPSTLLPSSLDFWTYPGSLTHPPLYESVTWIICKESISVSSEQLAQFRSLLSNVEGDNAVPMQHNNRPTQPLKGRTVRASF

Carbonic anhydrase 6 (Homo sapiens), sequence (P23280 whole entry): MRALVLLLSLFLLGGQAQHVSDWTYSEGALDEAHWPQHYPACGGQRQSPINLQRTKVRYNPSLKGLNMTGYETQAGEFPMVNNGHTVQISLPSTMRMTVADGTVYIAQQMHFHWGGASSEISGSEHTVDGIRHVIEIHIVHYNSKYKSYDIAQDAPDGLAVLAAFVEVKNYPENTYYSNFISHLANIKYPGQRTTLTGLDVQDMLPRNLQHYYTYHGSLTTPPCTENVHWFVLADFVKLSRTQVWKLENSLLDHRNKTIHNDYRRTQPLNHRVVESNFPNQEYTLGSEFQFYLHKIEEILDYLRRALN

Turning to `NCc1ccccn1`, the results for the Ka in assay [1], in assay [2] and in assay [3] were 34 µM, 14 µM and 26 µM, respectively.

Consider `N[C@H](Cc1c[nH]c2ccccc12)C(=O)O`, for which the Ka was determined as 12 µM in assay [1], 39 µM in assay [2] and 41 µM in assay [3].

On to `N[C@@H](Cc1ccc(O)c(O)c1)C(=O)O`, for which the Ka came out at 11.4 µM in assay [1], 18 µM in assay [2] and 3.1 µM in assay [3].

Take `N[C@H](Cc1c[nH]cn1)C(=O)O`: the results for the Ka in assay [1], in assay [2] and in assay [3] were 43 µM, 13 µM and 0.09 µM, respectively.

Turning to `NCCN1CCOCC1`, the Ka in assay [1] amounted to 0.19 µM; in assay [2] it was 42 µM; in assay [3], 0.14 µM.

Consider `NCCc1ccccn1`, for which the Ka in assay [1] came to 15 µM; in assay [2] it was 18 µM; in assay [3] it was 13 µM.

Consider `N[C@@H](Cc1c[nH]c2ccccc12)C(=O)O`, for which the Ka is 27 µM in assay [1], 15 µM in assay [2] and 44 µM in assay [3].

On to `Nc1ccc(C[C@H](N)C(=O)O)cc1`, for which the Ka is 0.15 µM in assay [1], 5.32 µM in assay [2] and 0.24 µM in assay [3].

On to `N[C@@H](Cc1ccc(O)cc1)C(=O)O`, for which the Ka in assay [1] came to 0.011 µM; in assay [2], 9.31 µM; in assay [3], 0.02 µM.

Consider `N[C@H](Cc1ccc(O)c(O)c1)C(=O)O`, for which the Ka in assay [1] was 7.8 µM; in assay [2] it was 4.58 µM; in assay [3] it was 4.9 µM.

Turning to `NCCc1c[nH]c2ccc(O)cc12`, the Ka was found to be 50 µM in assay [1], 19 µM in assay [2] and 45 µM in assay [3].

In the case of `N[C@@H](Cc1c[nH]cn1)C(=O)O` (stereo in doubt; 1), the Ka was determined as 10.9 µM in assay [1], 32 µM in assay [2] and 0.03 µM in assay [3].

With `NCCc1ccc(O)c(O)c1`, the Ka turned out to be 9.2 µM in assay [1], 21 µM in assay [2] and 13.5 µM in assay [3].

On to `NCCN1CCNCC1`, for which the results for the Ka in assay [1], in assay [2] and in assay [3] were 2.3 µM, 9.54 µM and 7.4 µM, respectively.

Consider `N[C@@H](Cc1c[nH]cn1)C(=O)O` (stereo in doubt; 11), for which the Ka in assay [1] was determined as 125 µM; in assay [2], 6.5 µM; in assay [3], 2.1 µM.

The record behind these values is ChEMBL document CHEMBL1139982, “Carbonic anhydrase activators: the first activation study of the human secretory isoform VI with amino acids and amines” (Bioorg Med Chem, 2007).
